Laboratory results taken from the CheMixHub ionic liquid set.
Several values for one entry are separate records, joined by “and”; a condition that tells them apart may be missing. Equal entries are not always repeated. ± gives the uncertainty stated by the source.

Assay: xn = mol fraction of the nth substance listed
Conditions: 298.15 K, 101.3 kPa

CCCCCC[n+]1ccn(C)c1.[Cl-] + OC[C@H]1O[C@@](CO)(O[C@H]2O[C@H](CO)[C@@H](O)[C@H](O)[C@H]2O)[C@@H](O)[C@@H]1O + O
Conditions	electrical conductivity
x2 = 0, x1 = 4.23e-06	0.00276 ± 3e-05 S/m
x2 = 0, x1 = 7.11e-06	0.00451 ± 5e-05 S/m
x2 = 0, x1 = 1.01e-05	0.00631 ± 6e-05 S/m
x2 = 0, x1 = 1.293e-05	0.008 ± 8e-05 S/m
x2 = 0, x1 = 1.551e-05	0.00953 ± 0.0001 S/m
x2 = 0, x1 = 1.836e-05	0.01121 ± 0.00011 S/m
x2 = 0, x1 = 2.116e-05	0.0129 ± 0.00013 S/m
x2 = 0, x1 = 2.393e-05	0.0145 ± 0.00015 S/m
x2 = 0, x1 = 2.652e-05	0.016 ± 0.00016 S/m
x2 = 0, x1 = 2.919e-05	0.0175 ± 0.00018 S/m
x2 = 0.003591, x1 = 8.04e-06	0.00433 ± 4e-05 S/m
x2 = 0.003591, x1 = 1.174e-05	0.00611 ± 6e-05 S/m
x2 = 0.003591, x1 = 1.526e-05	0.00778 ± 8e-05 S/m
x2 = 0.003591, x1 = 1.864e-05	0.00936 ± 9e-05 S/m
x2 = 0.003591, x1 = 2.202e-05	0.0109 ± 0.00011 S/m
x2 = 0.003591, x1 = 2.53e-05	0.01242 ± 0.00012 S/m
x2 = 0.003591, x1 = 2.853e-05	0.0139 ± 0.00014 S/m
x2 = 0.003591, x1 = 3.177e-05	0.01532 ± 0.00015 S/m
x2 = 0.003591, x1 = 3.49e-05	0.0167 ± 0.00017 S/m
x2 = 0.003591, x1 = 3.779e-05	0.018 ± 0.00018 S/m
x2 = 0.007156, x1 = 6.71e-06	0.00314 ± 3e-05 S/m
x2 = 0.007156, x1 = 1.012e-05	0.00459 ± 5e-05 S/m
x2 = 0.007156, x1 = 1.35e-05	0.00603 ± 6e-05 S/m
x2 = 0.007156, x1 = 1.699e-05	0.00749 ± 8e-05 S/m
x2 = 0.007156, x1 = 2.028e-05	0.00888 ± 9e-05 S/m
x2 = 0.007156, x1 = 2.319e-05	0.0101 ± 0.0001 S/m
x2 = 0.007156, x1 = 2.608e-05	0.01131 ± 0.00011 S/m
x2 = 0.007156, x1 = 2.915e-05	0.0126 ± 0.00013 S/m
x2 = 0.007156, x1 = 3.212e-05	0.0138 ± 0.00014 S/m
x2 = 0.007156, x1 = 3.545e-05	0.01517 ± 0.00015 S/m
x2 = 0.0107, x1 = 7.99e-06	0.00313 ± 3e-05 S/m
x2 = 0.0107, x1 = 1.176e-05	0.00442 ± 4e-05 S/m
x2 = 0.0107, x1 = 1.521e-05	0.00559 ± 6e-05 S/m
x2 = 0.0107, x1 = 1.87e-05	0.00676 ± 7e-05 S/m
x2 = 0.0107, x1 = 2.207e-05	0.00787 ± 8e-05 S/m
x2 = 0.0107, x1 = 2.533e-05	0.00894 ± 9e-05 S/m
x2 = 0.0107, x1 = 2.851e-05	0.00998 ± 0.0001 S/m
x2 = 0.0107, x1 = 3.135e-05	0.0109 ± 0.00011 S/m
x2 = 0.0107, x1 = 3.442e-05	0.0119 ± 0.00012 S/m
x2 = 0.0107, x1 = 3.724e-05	0.0128 ± 0.00013 S/m
x2 = 0.01421, x1 = 1.053e-05	0.00345 ± 4e-05 S/m
x2 = 0.01421, x1 = 1.542e-05	0.00495 ± 5e-05 S/m
x2 = 0.01421, x1 = 2.022e-05	0.00641 ± 6e-05 S/m
x2 = 0.01421, x1 = 2.485e-05	0.00781 ± 8e-05 S/m
x2 = 0.01421, x1 = 2.901e-05	0.00905 ± 9e-05 S/m
x2 = 0.01421, x1 = 3.286e-05	0.0102 ± 0.0001 S/m
x2 = 0.01421, x1 = 3.675e-05	0.01135 ± 0.00011 S/m
x2 = 0.01421, x1 = 4.055e-05	0.0125 ± 0.00013 S/m
x2 = 0.01421, x1 = 4.424e-05	0.0136 ± 0.00014 S/m
x2 = 0.01421, x1 = 4.811e-05	0.0147 ± 0.00015 S/m
x2 = 0.0177, x1 = 9.25e-06	0.00262 ± 3e-05 S/m
x2 = 0.0177, x1 = 1.338e-05	0.0037 ± 4e-05 S/m
x2 = 0.0177, x1 = 1.736e-05	0.00474 ± 5e-05 S/m
x2 = 0.0177, x1 = 2.112e-05	0.00571 ± 6e-05 S/m
x2 = 0.0177, x1 = 2.447e-05	0.00658 ± 7e-05 S/m
x2 = 0.0177, x1 = 2.813e-05	0.00751 ± 8e-05 S/m
x2 = 0.0177, x1 = 3.139e-05	0.00835 ± 8e-05 S/m
x2 = 0.0177, x1 = 3.466e-05	0.00918 ± 9e-05 S/m
x2 = 0.0177, x1 = 3.742e-05	0.00987 ± 0.0001 S/m
x2 = 0.0177, x1 = 4.046e-05	0.0106 ± 0.00011 S/m
x2 = 0.02116, x3 = 0.9787	0.01832 ± 0.00018 S/m
x2 = 0.02116, x3 = 0.9788	0.014 S/m and 0.0154 S/m and 0.0169 S/m
